Data as given in PubChem BioAssay (NCI).
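GI50 marks 50% less growth. The concentration for full growth arrest is given as TGI.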

Experiments:
Test in all cases: inhibition of tumour cell growth, NCI panel, 384-well format
DU-145 prostate = tested on: DU-145 prostate
OVCAR-3 ovarian = tested on: OVCAR-3 ovarian
BT-549 breast = tested on: BT-549 breast
OVCAR-5 ovarian = tested on: OVCAR-5 ovarian
ACHN renal = tested on: ACHN renal
RPMI-8226 leukemia = tested on: RPMI-8226 leukemia
HCC-2998 colon = tested on: HCC-2998 colon
HT29 colon = tested on: HT29 colon
SR leukemia = tested on: SR leukemia
CAKI-1 renal = tested on: CAKI-1 renal
MOLT-4 leukemia = tested on: MOLT-4 leukemia
MDA-MB-468 breast = tested on: MDA-MB-468 breast
SF-295 CNS = tested on: SF-295 CNS
NCI/ADR-RES ovarian = tested on: NCI/ADR-RES ovarian
IGROV1 ovarian = tested on: IGROV1 ovarian
SK-MEL-28 melanoma = tested on: SK-MEL-28 melanoma
HCT-15 colon = tested on: HCT-15 colon
HL-60(TB) leukemia = tested on: HL-60(TB) leukemia
SK-MEL-5 melanoma = tested on: SK-MEL-5 melanoma
UACC-62 melanoma = tested on: UACC-62 melanoma
KM12 colon = tested on: KM12 colon
OVCAR-8 ovarian = tested on: OVCAR-8 ovarian
U251 glioblastoma = tested on: U251 glioblastoma
OVCAR-4 ovarian = tested on: OVCAR-4 ovarian
SNB-75 CNS = tested on: SNB-75 CNS
A498 renal = tested on: A498 renal
HOP-62 NSCLC = tested on: HOP-62 NSCLC
T-47D breast = tested on: T-47D breast
SF-539 CNS = tested on: SF-539 CNS
NCI-H322M lung = tested on: NCI-H322M lung
EKVX NSCLC = tested on: EKVX NSCLC
HOP-92 NSCLC = tested on: HOP-92 NSCLC
PC-3 prostate = tested on: PC-3 prostate
MDA-MB-231 breast = tested on: MDA-MB-231 breast
HS 578T breast = tested on: HS 578T breast
SNB-19 CNS = tested on: SNB-19 CNS
NCI-H460 NSCLC = tested on: NCI-H460 NSCLC
MALME-3M melanoma = tested on: MALME-3M melanoma
COLO 205 colon = tested on: COLO 205 colon
LOX IMVI melanoma = tested on: LOX IMVI melanoma
HCT-116 colon = tested on: HCT-116 colon
UACC-257 melanoma = tested on: UACC-257 melanoma
NCI-H522 lung = tested on: NCI-H522 lung
TK-10 renal = tested on: TK-10 renal
SN12C renal = tested on: SN12C renal
MCF7 breast = tested on: MCF7 breast
M14 melanoma = tested on: M14 melanoma
NCI-H226 lung = tested on: NCI-H226 lung
RXF 393 renal = tested on: RXF 393 renal
SF-268 CNS = tested on: SF-268 CNS
A549 NSCLC = tested on: A549 NSCLC
MDA-MB-435 melanoma = tested on: MDA-MB-435 melanoma
NCI-H23 lung = tested on: NCI-H23 lung

Cn1cc(-c2[nH]c3cc(NC(=O)[C@H](N)C4CCCCC4)cc4c3c2C=NNC4=O)cn1
GI50 (DU-145 prostate): 359 nM
TGI (DU-145 prostate): 12400 nM
GI50 (OVCAR-3 ovarian): 49.6 nM
TGI (OVCAR-3 ovarian): 209 nM
GI50 (BT-549 breast): 152 nM
TGI (BT-549 breast): 362 nM
GI50 (OVCAR-5 ovarian): 326 nM
TGI (OVCAR-5 ovarian): 953 nM
GI50 (ACHN renal): 314 nM
TGI (ACHN renal): 954 nM
GI50 (RPMI-8226 leukemia): 1920 nM
TGI (RPMI-8226 leukemia): 3370 nM
GI50 (HCC-2998 colon): 42 nM
TGI (HCC-2998 colon): 227 nM
GI50 (HT29 colon): 1030 nM
TGI (HT29 colon): 2580 nM
TGI (SR leukemia): 27.2 nM
GI50 (CAKI-1 renal): 531 nM
TGI (CAKI-1 renal): 12400 nM
GI50 (MOLT-4 leukemia): 201 nM
TGI (MOLT-4 leukemia): 347 nM
GI50 (MDA-MB-468 breast): 186 nM
TGI (MDA-MB-468 breast): 426 nM
GI50 (SF-295 CNS): 339 nM
TGI (SF-295 CNS): 2300 nM
GI50 (NCI/ADR-RES ovarian): 4970 nM
TGI (NCI/ADR-RES ovarian): 23100 nM
GI50 (IGROV1 ovarian): 275 nM
TGI (IGROV1 ovarian): 960 nM
GI50 (SK-MEL-28 melanoma): 761 nM
TGI (SK-MEL-28 melanoma): 16400 nM
GI50 (HCT-15 colon): 2720 nM
TGI (HCT-15 colon): 9180 nM
GI50 (HL-60(TB) leukemia): 204 nM
TGI (HL-60(TB) leukemia): 353 nM
GI50 (SK-MEL-5 melanoma): 175 nM
TGI (SK-MEL-5 melanoma): 407 nM
GI50 (UACC-62 melanoma): 486 nM
TGI (UACC-62 melanoma): 18200 nM
GI50 (KM12 colon): 466 nM
TGI (KM12 colon): 8760 nM
GI50 (OVCAR-8 ovarian): 153 nM
TGI (OVCAR-8 ovarian): 359 nM
GI50 (U251 glioblastoma): 320 nM
TGI (U251 glioblastoma): 1520 nM
GI50 (OVCAR-4 ovarian): 29.6 nM
TGI (OVCAR-4 ovarian): 93.9 nM
GI50 (SNB-75 CNS): 506 nM
TGI (SNB-75 CNS): 2990 nM
GI50 (A498 renal): 91.6 nM
TGI (A498 renal): 277 nM
GI50 (HOP-62 NSCLC): 203 nM
TGI (HOP-62 NSCLC): 483 nM
GI50 (T-47D breast): 12200 nM
TGI (T-47D breast): 24700 nM
GI50 (SF-539 CNS): 38.1 nM
TGI (SF-539 CNS): 156 nM
GI50 (NCI-H322M lung): 198 nM
TGI (NCI-H322M lung): 894 nM
GI50 (EKVX NSCLC): 538 nM
TGI (EKVX NSCLC): 11400 nM
GI50 (HOP-92 NSCLC): 111 nM
TGI (HOP-92 NSCLC): 5430 nM
GI50 (PC-3 prostate): 768 nM
TGI (PC-3 prostate): 13400 nM
GI50 (MDA-MB-231 breast): 599 nM
TGI (MDA-MB-231 breast): 9620 nM
GI50 (HS 578T breast): 191 nM
TGI (HS 578T breast): 847 nM
GI50 (SNB-19 CNS): 299 nM
TGI (SNB-19 CNS): 1090 nM
GI50 (NCI-H460 NSCLC): 3090 nM
TGI (NCI-H460 NSCLC): 11100 nM
GI50 (MALME-3M melanoma): 781 nM
TGI (MALME-3M melanoma): 17400 nM
GI50 (COLO 205 colon): 489 nM
TGI (COLO 205 colon): 1710 nM
GI50 (LOX IMVI melanoma): 312 nM
TGI (LOX IMVI melanoma): 1060 nM
GI50 (HCT-116 colon): 427 nM
TGI (HCT-116 colon): 6280 nM
GI50 (UACC-257 melanoma): 1420 nM
TGI (UACC-257 melanoma): 6260 nM
GI50 (NCI-H522 lung): 219 nM
TGI (NCI-H522 lung): 627 nM
GI50 (TK-10 renal): 222 nM
TGI (TK-10 renal): 515 nM
GI50 (SN12C renal): 200 nM
TGI (SN12C renal): 856 nM
GI50 (MCF7 breast): 176 nM
TGI (MCF7 breast): 12700 nM
GI50 (M14 melanoma): 195 nM
TGI (M14 melanoma): 402 nM
GI50 (NCI-H226 lung): 636 nM
TGI (NCI-H226 lung): 3950 nM
GI50 (RXF 393 renal): 211 nM
TGI (RXF 393 renal): 689 nM
GI50 (SF-268 CNS): 169 nM
TGI (SF-268 CNS): 10900 nM
GI50 (A549 NSCLC): 4660 nM
TGI (A549 NSCLC): 17300 nM
GI50 (MDA-MB-435 melanoma): 166 nM
TGI (MDA-MB-435 melanoma): 340 nM
GI50 (NCI-H23 lung): 276 nM
TGI (NCI-H23 lung): 1740 nM
